Where two headings read alike, the source gives them in different places.
Experiments:
Tetranychus urticae = assay: Mortality of two spotted spider mite on French bean plants, abamectin with/without Morflex 560; assay type: in vivo, Tetranychus urticae (on Phaseolus vulgaris); conditions: 10 days, larva and adults averaged, Morflex 560 0.1% v/v where present
Procedure: The efficacy of tri-n-hexyltrimellitate (Morflex® 560) as an adjuvant in compositions containing abamectin was tested and compared to the efficacy of abamectin compositions which lack this type of adjuvant. The Morflex 560 was present at 0.1% v/v in the abamectin compositions. The surfactants polyoxyethylene sorbitan monooleate and an ethoxylated castor oil were also present in all the abamectin compositions tested. Two week old French bean (Phaseolus vulgaris) plants were infested with a mixed population of two spotted spider mite Tetranychus urticae. One day after infestation the plants were treated with the test compositions, with a track sprayer from the top with a rate of 200 liters per hectare. Plants were incubated in the greenhouse for 10 days and the evaluation was done on mortality against Larva and Adults, just on the lower side (untreated) of the leaves. Each experiment was replicated twice and the results were averaged. The mortality against Larva and Adults was then averaged.

[1] = test system: Abutilon theophrasti, Chenopodium album, Digitaria sanguinalis, Setaria viridis; assay: Glasshouse weed kill, nicosulfuron with/without adjuvants (Example 3); assay type: in vivo; conditions: % leaf area killed; mean over nicosulfuron 30 and 60 g/ha, 14 and 21 days, four species; adjuvant 0.2%
Procedure: The efficacy of the aromatic acid ester Morflex ®560 (tri-n-hexyltrimellitate) as an adjuvant for the herbicide nicosulfruon was tested against four weed species in a glasshouse and compared to the well-know adjuvants, tris-2-ethylhexyl phosphate and acetyl tributyl citrate which were tested at concentrations of 0.2% w/w. The adjuvant oils were emulsified using a small amount of the surfactant Pluronic® PE 10500, which was present in the composition at a concentration of 0.02% v/v.
An agrochemical composition was prepared containing 0.2% v/v of the adjuvant in a track sprayer, and was applied at a volume of 200 liters per hectare. Nicosulfuron was applied at a rate of either 30 or 60 grams of pesticide per hectare. The weed species and their growth stage at spraying were Abutilon theophrasti (ABUTH; growth stage 13), Chenopodium album (CHEAL; growth stage 14), Digitaria sanguinalis (DIGSA; growth stage 13), and Setaria viridis (SETVI; growth stage 13).
Each spray test replicated three times. The efficacy of the herbicide was assessed visually and expressed as a percentage of the leaf area killed. Samples were assessed at time periods of 14 and 21 days following application. […]

[2] = test system: Abutilon theophrasti, Chenopodium album, Digitaria sanguinalis, Setaria viridis; assay type: in vivo
Procedure: The efficacy of the aromatic esters tri-n-hexyltrimellitate (Morflex®560) and tri-isodecylmellitate (Morflex®530) as adjuvants for nicosulfuron were tested in a glasshouse against four weed species. An agrochemical composition was prepared containing 0.2% v/v of the adjuvant in a track sprayer, and was applied at a volume of 200 liters per hectare. The adjuvant oils were emulsified using a small amount of the surfactant Pluronic® PE 10500, which was present in the composition at a concentration of 0.02% v/v. Nicosulfuron was applied at a rate of either 30 or 60 grams per hectare. The weed species and their growth stage at spraying were Abutilon theophrasti (ABUTH; growth stage 13), Chenopodium album (CHEAL; growth stage 14), Digitaria sanguinalis (DIGSA; growth stage 13), and Setaria viridis (SETVI; growth stage 13).
Each spray test was replicated three times. The efficacy of the herbicide was assessed visually and expressed as a percentage of the leaf area killed. Samples were assessed at time periods of 14 and 21 days following application. […] In this experiment Atplus®411F was added at the higher rate of 0.5% v/v. The other adjuvants were added at 0.2% v/v.

Septoria tritici = Septoria tritici infection of wheat plants, isopyrazam spray with/without adjuvants; assay type: in vivo, Septoria tritici (on wheat plants); conditions: conclusion from Table 2
Procedure: The efficacy of the following aromatic acid esters tri-n-hexyltrimellitate (Morflex®560) and tri-isodecyl trimellitate (Morflex®530), as adjuvants in compositions comprising isopyrazam was tested and compared to the standard formulations (both EC and SC) of the fungicide, which lack this type of adjuvant.
Wheat plants were inoculated with the fungus Septoria tritici. Five days after inoculation the plants were sprayed with a diluted emulsion concentrate or suspension concentrate formulation of the fungicide isopyrazam at rates of 3, 10, 30 and 100 mg of the fungicide per litre of spray solution, using a laboratory track sprayer which delivered the spray at a rate of 200 liters per hectare. Spray tests were also carried out with diluted suspension concentrate additionally comprising each of the benzoate adjuvants described above. These adjuvants were added to the spray solution at a rate of 0.5% w/w, based on the quantity of spray liquor. The adjuvant oils were emulsified using a small amount of the surfactant Pluronic® PE 10500, which was present in the composition at a concentration of 0.02% v/v. The leaves of the plants were assessed visually 14 days after the spray application and the damage was expressed as the percentage of the leaf area infected.

[3] = test system: Alopecurus myosuroides, Avena fatua, Lolium perenne, Setaria viridis; assay: Glasshouse weed kill, pinoxaden with/without adjuvants (Example 8); assay type: in vivo
Procedure: The efficacy of the aromatic esters tri-n-hexyltrimellitate (Morflex®560) and tri-isodecylmellitate (Morflex®530) as adjuvants for pinoxaden were tested in a glasshouse against four weed species. An agrochemical composition was prepared containing 0.2% v/v of the adjuvant in a track sprayer and was applied at a volume of 200 liters per hectare. Pinoxaden was applied at either 7.5 or 15 grams per hectare on each of the weed species. The weed species and their growth stage at spraying were Alopecurus myosuroides (ALOMY; growth stage 13), Avena fatua (AVEFA; growth stage 12); Lolium perenne (LOLPE; growth stage 13), Setaria viridis (SETVI; growth stage 14).
Each spray test was replicated three times. The efficacy of the herbicide was assessed visually and expressed as a percentage of the leaf area killed. Samples were assessed at time periods of 7 and 14 days following application. The results shown in Table 9 below are mean averages over the two rates of pinoxaden, three replicates, four weed species and the two assessment timings. The results were compared to the efficacy of pinoxaden in the absence of an adjuvant and pinoxaden in the presence of either tri-2-ethylhexyl phosphate (applied at 0.5% v/v) or methyl oleate (applied at 0.2% v/v).

[4] = test system: Polygonum convolvulus, Brachiaria platyphylla, Digitaria sanguinalis, Amaranthus tuberculatus; assay: Glasshouse weed kill, mesotrione with/without adjuvants (Example 5); assay type: in vivo; conditions: % leaf area killed; mean over mesotrione 45 and 90 g/ha, 7, 14 and 21 days, four species; adjuvant 0.2% (Tween 20 0.5% w/w)
Procedure: The efficacy of the aromatic ester tri-n-hexyltrimellitate (Morflex®560) was tested in a glasshouse against four weed species using the herbicide mesotrione. An agrochemical composition was prepared containing 0.2% v/v of the adjuvant in a track sprayer and was applied at a volume of 200 liters per hectare. The adjuvant oils were emulsified using a small amount of the surfactant Pluronic® PE 10500, which was present in the composition at a concentration of 0.02% v/v. Mesotrione was applied at either 45 or 90 grams of pesticide per hectare on weeds which had been grown to the 1.3 or 1.4 leaf stage. The weed species were Polygonum convolvulus (POLCO), Brachiaria platyphylla (BRAPL) Digitaria sanguinalis (DIGSA) and Amaranthus tuberculatus (AMATU).
Each spray test was replicated three times. The efficacy of the herbicide was assessed visually and expressed as a percentage of the leaf area killed. Samples were assessed at time periods of 7, 14 and 21 days following application. The results shown in Table 6 below are mean averages over the two rates of mesotrione, three relicates, four weed species and the three assessment timings and are compared to the efficacy of mesotrione in the absence of an adjuvant, and mesotrione in the presence of the commercially available adjuvants acetyl tributyl citrate or Tween®20 which were used at concentrations of 0.2 and 0.5% w/w respectively.

[5] = test system: Alopecurus myosuroides, Avena fatua, Lolium perenne, Setaria viridis; assay: Glasshouse weed kill, pinoxaden with/without adjuvants (Example 6); assay type: in vivo; conditions: % leaf area killed; mean over pinoxaden 7.5 and 15 g/ha, 14 and 21 days, four species; adjuvant 0.2%
Procedure: The efficacy of the aromatic ester tri-n-hexyltrimellitate (Morflex®560) was tested in a glasshouse against four weed species using the herbicide pinoxaden. An agrochemical composition was prepared containing 0.2% v/v of the adjuvant in a track sprayer and was applied at a volume of 200 liters per hectare. The adjuvant oils were emulsified using a small amount of the surfactant Pluronic® PE 10500, which was present in the composition at a concentration of 0.02% v/v. Pinoxaden was applied at either 7.5 or 15 grams of pesticide per hectare on each of the weed species. The weed species and their growth stage at spraying were Alopecurus myosuroides (ALOMY; growth stage 13), Avena fatua (AVEFA; growth stage 12); Lolium perenne (LOLPE; growth stage 13), Setaria viridis (SETVI; growth stage 14).
Each spray test was replicated three times. The efficacy of the herbicide was assessed visually and expressed as a percentage of the leaf area killed. Samples were assessed at time periods of 14 and 21 days following application. The results shown in table 7 below are mean averages over the two rates of pinoxaden, three replicates, four weed species and the two assessment timings, and are compared to the efficacy of pinoxaden in the absence of adjuvant and pinoxaden in the presence of the known adjuvant acetyl tributyl citrate which was used at a concentration of 0.2% w/w.

[6] = test system: Chenopodium album, Abutilon theophrasti, Setaria viridis, Xanthium strumarium; assay: Glasshouse weed kill, fomesafen with/without adjuvants (Example 4); assay type: in vivo; conditions: % leaf area killed; mean over fomesafen 60 and 120 g/ha, 7, 14 and 21 days, four species; adjuvant 0.2% (Turbocharge 0.5% w/w)
Procedure: The efficacy of the aromatic acid ester Morflex ®560 (tri-n-hexyltrimellitate) as an adjuvant for the herbicide fomesafen was tested against four weed species in a glasshouse and compared to the well-know adjuvants, acetyl tributyl citrate and Turbocharge® which were added at concentrations of 0.2 and 0.5% w/w respectively. The adjuvant oils were emulsified using a small amount of the surfactant Pluronic® PE 10500, which was present in the composition at a concentration of 0.02% v/v.
An agrochemical composition was prepared containing 0.2% v/v of the adjuvant in a track sprayer and was applied at a volume of 200 liters per hectare. Fomesafen was applied at either 60 or 120 grams of pesticide per hectare on each of the weed species. The weed species and their growth stage at spraying were Chenopodium album (CHEAL; growth stage 14), Abutilon theophrasti (ABUTH; growth stage 12), Setaria viridis (SETVI; growth stage 13), and Xanthium strumarium (XANST; growth stage 12).
Each spray test was replicated three times. The efficacy of the herbicide was assessed visually and expressed as a percentage of the leaf area killed. Samples were assessed at time periods of 7, 14 and 21 days following application. […]

Abamectin
% mortality of Tetranychus urticae (Tetranychus urticae; abamectin 0.2 ppm): 0% | % mortality of Tetranychus urticae (Tetranychus urticae; abamectin 0.4 ppm): 0% | % mortality of Tetranychus urticae (Tetranychus urticae; abamectin 0.8 ppm): 27% | % mortality of Tetranychus urticae (Tetranychus urticae; abamectin 1.5 ppm): 70% | % mortality of Tetranychus urticae (Tetranychus urticae; abamectin 3 ppm): 95%

COc1cc(OC)nc(NC(=O)NS(=O)(=O)c2ncccc2C(=O)N(C)C)n1 [Nicosulfuron, reference compound]
Mean percentage kill, mean across species [1]: 42.5 B % | Mean percentage kill, mean across species ([2]; % leaf area killed, mean over nicosulfuron 30 and 60 g/ha, 14 and 21 days, four species, adjuvant 0.2% v/v (Atplus 411F 0.5% v/v)): 31.1 E %

CC(C)CCCCCCCOC(=O)c1ccc(C(=O)OCCCCCCCC(C)C)c(C(=O)OCCCCCCCC(C)C)c1 [Tri-isodecyl trimellitate]
adjuvant efficacy in words (isopyrazam, S. tritici) (Septoria tritici): as efficacious as the commercial tank mix adjuvant Turbocharge® | adjuvant efficacy in words (nicosulfuron) ([2]; conclusion from Table 8): increases the efficacy of the herbicide nicosulfuron | adjuvant efficacy in words (pinoxaden) ([3]; conclusion from Table 9): increases the efficacy of pinoxaden

CS(=O)(=O)c1ccc(C(=O)C2C(=O)CCCC2=O)c([N+](=O)[O-])c1 [Mesotrione, reference compound]
Mean percentage kill, mean across species [4]: 34.0 B %

CCc1cc(C)cc(CC)c1-c1c(OC(=O)C(C)(C)C)n2n(c1=O)CCOCC2 [Pinoxaden, reference compound]
Mean percentage kill, mean across species [5]: 11.4 C % | Mean percentage kill, mean across species ([3]; % leaf area killed, mean over pinoxaden 7.5 and 15 g/ha, 7 and 14 days, four species, adjuvant 0.2% v/v (tri-2-ethylhexyl phosphate 0.5% v/v)): 2.3 D %

CS(=O)(=O)NC(=O)c1cc(Oc2ccc(C(F)(F)F)cc2Cl)ccc1[N+](=O)[O-] [Fomesafen, reference compound]
Mean percentage kill, mean across species [6]: 22.5 D %
